Laboratory results taken from patent US20090253687A1, “Fused Heterocyclic Compounds and Their Use as Mineralocorticoid Receptor Ligands” (priority 2005, published 2009).

Tested on: not given
Experiment: not given
Details: not given
In the case of O=C1COc2ccc(C3=Cc4ccccc4[S+]([O-])C3c3ccccc3)cc2N1 (stereo not shown) [Example 22, 6-(1-oxido-2-phenyl-2H-thiochromen-3-yl)-2H-1,4-benzoxazin-3(4H)-one], the melting point is reported as 228 °C.

Biological target: T1, Human Mineralocorticoid Receptor (hMR) (Homo sapiens, UniProt P08235)
T1 construct: Full-length cDNA was constructed from two fragments of hMR cDNA amplified separately; expressed in transfected cells; host or cells: FreeStyle 293 cells transiently transfected with pMCMVneo-hMR; supernatant of the freeze-thaw lysate after ultracentrifugation
T1 sequence (P08235 1-984): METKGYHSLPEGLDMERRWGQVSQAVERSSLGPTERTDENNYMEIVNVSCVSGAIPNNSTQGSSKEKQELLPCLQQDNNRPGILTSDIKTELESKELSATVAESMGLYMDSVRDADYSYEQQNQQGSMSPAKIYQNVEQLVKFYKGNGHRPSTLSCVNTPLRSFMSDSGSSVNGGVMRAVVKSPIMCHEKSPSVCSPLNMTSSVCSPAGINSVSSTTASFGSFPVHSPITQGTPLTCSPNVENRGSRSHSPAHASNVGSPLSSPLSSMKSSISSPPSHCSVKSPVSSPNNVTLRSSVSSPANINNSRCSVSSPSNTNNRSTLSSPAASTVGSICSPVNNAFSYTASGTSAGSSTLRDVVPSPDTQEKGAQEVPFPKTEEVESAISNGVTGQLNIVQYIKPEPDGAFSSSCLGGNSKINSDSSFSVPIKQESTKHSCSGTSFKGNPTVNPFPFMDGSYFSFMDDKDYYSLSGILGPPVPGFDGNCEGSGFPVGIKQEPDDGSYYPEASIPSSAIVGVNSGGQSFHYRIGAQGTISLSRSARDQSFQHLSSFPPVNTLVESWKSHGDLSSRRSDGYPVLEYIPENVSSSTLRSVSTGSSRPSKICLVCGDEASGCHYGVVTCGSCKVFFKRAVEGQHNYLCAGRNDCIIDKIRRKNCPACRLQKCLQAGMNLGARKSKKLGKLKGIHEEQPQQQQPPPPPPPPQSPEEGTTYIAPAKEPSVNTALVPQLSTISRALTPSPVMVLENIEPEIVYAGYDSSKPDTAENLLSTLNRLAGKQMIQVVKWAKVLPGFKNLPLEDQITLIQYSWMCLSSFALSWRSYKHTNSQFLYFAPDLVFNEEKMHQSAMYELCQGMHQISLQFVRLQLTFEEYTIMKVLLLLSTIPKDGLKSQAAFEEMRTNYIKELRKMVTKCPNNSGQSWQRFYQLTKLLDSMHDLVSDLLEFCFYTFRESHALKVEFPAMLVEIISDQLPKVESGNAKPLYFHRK
Experiment: Inhibition of binding of [3H]-aldosterone to hMR (lysate of FreeStyle 293 cells expressing hMR)
Details: compound at 10^−5 M; 10 nM [3H]-aldosterone; hMR lysate 1.0 mg/ml; 16 hr at 4° C.; read-out: Inhibition rate (at 10^−5 M)
Method: The following procedures described in this Example were carried out according to the methods described in Molecular Cloning—Cold Spring Harbor Laboratory (1989) or protocols specified by manufacturers. (1) Cloning of Human Mineralocorticoid Receptor (hMR) cDNA hMR cDNA was amplified by polymerase chain reaction (PCR) from human kidney cDNA library. Full-length cDNA was constructed from two fragments of hMR cDNA amplified separately. The primers were designed referring to the nucleotide sequence of hMR cDNA reported by Arriza et. al (Science 1987; 237: 268-275). The PCR reactions were carried out using Pyrobest® DNA polymerase (Takara). The PCR products were electrophoresed in agarose gel, and 1.7 kb (region (i)) and 1.5 kb (region (ii)) DNA fragments were recovered. Each DNA fragment was inserted into pCR®4Blunt-TOPO® vector (Invitrogen). The resulting plasmids thus obtained were designated as pB-hMR (i) and pB-hMR (ii). To obtain the full-length hMR cDNA, pB-hMR (i) was digested with XhoI and PvuI, and pB-hMR (ii) was digested with PvuI and KpnI, respectively, and the two cDNA fragments were ligated into pBlueScript®IISK+ vector (Stratagene). The resulting plasmid thus obtained was designated as pB-hMR. (2) Construction of hMR Expression Plasmid pMCMVneo (described in WO03/099793) was digested with XhoI and KpnI, and 5.6 kb fragment was ligated with 2.9 kb hMR cDNA fragment obtained by digestion of pB-hMR (described in above (1)) with XhoI and KpnI. The plasmid thus obtained was designated as pMCMVneo-hMR. (3) Expression of hMR in FreeStyle 293 Cells and Preparation of Cell Lysate FreeStyle 293 cells were inoculated at 1×10^8 cells in 93 ml FreeStyle™ 293 Expression Medium (Invitrogen) in a 500 ml Erlenmeyer flask and cultured at 37° C. under 8% CO2 for 1 hr. The cells were treated with 6.7 ml of the transfection mixture containing 100 μg of pMCMVneo-hMR obtained in above (2) and 133 μl of FreeStyle™ 293 Transfection Reagent (Invitrogen). The transfected cells were cultivated for 48 hr at 37° C. in 8% CO2 atmosphere. The cultivated cells were centrifuged and washed with TEG buffer (10 mM Tris-HCl (pH 7.2), 50 mM EDTA, 10% glycerol), and resuspended in 10 ml TEGM buffer (10 mM Tris-HCl (pH 7.2), 1 mM EDTA, 10% glycerol, 1 mM β-mercaptoethanol, 10 mM sodium molybdate, 1 mM dithiothreitol, 2 tablets/100 ml of protease inhibitor cocktail tablets (Roche)). The cell suspension was frozen with liquid nitrogen and thawed on ice, and ultra-centrifuged at 225,000×g for 20 min at 4° C. The supernatant fraction including hMR (hMR lysate) was collected and stored at −80° C. (4) Measurement of Inhibition Activity Against Binding of hMR and Aldosterone [^3H]-Aldosterone (Amersham Biosciences) as ligand was added at 10 nM to the reaction mixture including test compound at various concentration and hMR lysate (1.0 mg/ml) obtained in above (3) and mixture was filled up to 50.5 μl with TEGM buffer. The reaction mixture was incubated for 16 hr at 4° C. and 35 μl of dextran/gelatin coated charcoal suspension (5% charcoal, 0.5% dextran T-70 (Amersham Biosciences), 0.1% gelatin (SIGMA), 10 mM Tris HCl (pH 7.2), 1 mM EDTA) was added thereto to separate bound and free radioactive aldosterone. The mixture containing charcoal was incubated for 10 min at 4° C. and centrifuged at 910×g for 10 min at 4° C. Radioactivity in 30 μl of the supernatant was measured by TopCount™ (Packard). For the determination of nonspecific binding, cold Aldosterone instead of drug was added to reaction mixture at 100 μM. Specific binding was determined by subtracting nonspecific binding from total binding.
In the case of O=C1COc2ccc(C3=Cc4ccccc4OC3c3ccccc3)cc2N1 (stereo not shown) [Example 19, 6-(2-Phenyl-2H-chromen-3-yl)-2H-1,4-benzoxazin-3(4H)-one], the inhibition at 10 µM is reported as ≥ 70%. In the case of O=C1COc2ccc(-c3cc(C(F)(F)C(F)(F)F)nn3-c3ccc(F)cc3)cc2N1 [Example 100, 6-(1-(4-Fluorophenyl)-3-(perfluoroethyl)-1H-pyrazol-5-yl)-2H-benzo[b][1,4]oxazin-3(4H)-one], the inhibition at 10 µM is reported as ≥ 70%. With O=C1COc2c(Cl)cc(C3=Cn4ccnc4SC3c3ccc(F)cc3)cc2N1 (stereo not shown) [Example 118, 8-chloro-6-[7-(4-fluorophenyl)-7H-imidazo[2,1-b][1,3]thiazin-6-yl]-2H-1,4-benzoxazin-3(4H)-one] the inhibition at 10 µM was ≥ 70%. In the case of O=C1COc2ccc(-c3cc(C(F)(F)F)nn3-c3ccc(F)cc3)cc2N1 [Example 71, 6-(1-(4-Fluorophenyl)-3-(trifluoromethyl)-1H-pyrazol-5-yl)-2H-benzo[b][1,4]oxazin-3(4H)-one], the inhibition at 10 µM is reported as ≥ 70%. With O=C1COc2ccc(-c3cc(C(F)(F)F)nn3-c3ccc(Cl)cc3)cc2N1 [Example 74, 6-(1-(4-Chlorophenyl)-3-(trifluoromethyl)-1H-pyrazol-5-yl)-2H-benzo[b][1,4]oxazin-3(4H)-one] the inhibition at 10 µM was ≥ 70%. For O=C1COc2ccc(C3=Cn4ccnc4SC3c3ccccc3)cc2N1 (stereo not shown) [Example 26, 6-(7-Phenyl-7H-imidazo[2,1-b][1,3]thiazin-6-yl)-2H-1,4-benzoxazin-3(4H)-one], the inhibition at 10 µM was ≥ 70%. In the case of O=C1COc2ccc(C3=Nc4ccccc4SC3c3ccccn3)cc2N1 (stereo not shown) [Example 43, 6-(2-Pyridin-2-yl-2H-1,4-benzothiazin-3-yl)-2H-1,4-benzoxazin-3(4H)-one], the inhibition at 10 µM is reported as ≥ 70%. For Cc1cc(F)ccc1-n1nc(C(F)(F)F)cc1-c1cc(C)c2c(c1)NC(=O)CO2 [Example 110, 6-(1-(4-fluoro-2-methylphenyl)-3-(trifluoromethyl)-1H-pyrazol-5-yl)-8-methyl-2H-benzo[b][1,4]oxazin-3(4H)-one], the inhibition at 10 µM was ≥ 70%. In the case of Cc1cc(C2=Nn3cnnc3SC2c2ccc(F)cc2)cc2c1OCC(=O)N2 (stereo not shown) [Example 185, 6-[7-(4-fluorophenyl)-7H-[1,2,4]triazolo[3,4-b][1,3,4]thiadiazin-6-yl]-8-methyl-2H-1,4-benzoxazin-3(4H)-one], the inhibition at 10 µM is reported as ≥ 70%. For O=C1COc2ccc(C3=Nc4ccccc4SC3c3ccccc3)cc2N1 (stereo not shown) [Example 14, 6-(2-Phenyl-2H-1,4-benzothiazin-3-yl)-2H-1,4-benzoxazin-3(4H)-one], the inhibition at 10 µM was ≥ 70%. In the case of O=C1COc2ccc(C3=Nn4cc(C(F)(F)F)nc4SC3c3ccccc3)cc2N1 (stereo not shown) [Example 7, 6-[2-Phenyl-7-(trifluoromethyl)-2H-imidazo[2,1-b][1,3,4]thiadiazin-3-yl]-2H-1,4-benzoxazin-3(4H)-one], the inhibition at 10 µM is reported as ≥ 70%. For O=C1COc2ccc(C3=NN(C(=O)C(F)(F)F)CC3c3ccccc3)cc2N1 (stereo not shown) [Example 57, 6-(4-Phenyl-1-(2,2,2-trifluoroacetyl)-4,5-dihydro-1H-pyrazol-3-yl)-2H-benzo[b][1,4]oxazin-3(4H)-one], the inhibition at 10 µM was ≥ 70%. With Cc1nn(C)c(-c2ccc3c(c2)NC(=O)CO3)c1-c1ccccc1 [Example 288, 6-(1,3-dimethyl-4-phenyl-1H-pyrazol-5-yl)-2H-benzo[b][1,4]oxazin-3(4H)-one] the inhibition at 10 µM was ≥ 70%. In the case of Cc1cc(F)ccc1-n1nc(C(F)(F)F)cc1-c1cc(C)c2c(n1)NC(=O)CO2 [Example 255, 6-[1-(4-fluoro-2-methylphenyl)-3-(trifluoromethyl)-1H-pyrazol-5-yl]-8-methyl-2H-pyrido[3,2-b][1,4]oxazin-3(4H)-one], the inhibition at 10 µM is reported as ≥ 70%. With O=C1COc2ccc(C3=Nn4cnnc4SC3c3ccccc3Cl)cc2N1 (stereo not shown) [Example 34, 6-[7-(2-chlorophenyl)-7H-[1,2,4]triazolo[3,4-b][1,3,4]thiadiazin-6-yl]-2H-1,4-benzoxazin-3(4H)-one] the inhibition at 10 µM was ≥ 70%.
